Laboratory results reported in publication PMC8459971, “Evaluation of the hepatotoxicity of the novel GPR40 (FFAR1) agonist CPL207280 in the rat and monkey” (PLoS ONE, 2021).
“And” between values parts separate entries of the source, which are not always exact repeats. Equal entries are not always repeated. Where two headings read alike, the source gives them in different places. Marks after values point to notes of the source that are not given here.

Tests used:
[1] = biological target: OATP1A2 (Homo sapiens, UniProt P46721); assay: Uptake transporter inhibition assay, OATP1A2; details: for Accumulation (counts per minute; CPM) HEK293FT-MOCK / Accumulation (counts per minute; CPM) HEK293FT-OATP1A2: OATP1A2;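 further: cellular uptake of a radiolabeled probe substrate in HBSS pH 7.4 at 37 °C with test compound or solvent, measured by liquid scintillation counting of cell lysates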
Procedure: For the uptake transporter inhibition assay, cells were washed twice with 100 μL of the appropriate buffer (HK, pH 7.4) for OATP1B1, followed by HBSS (pH 7.4) for (NTCP, OAT1, OAT2v1, OATP1A2, and OATP1B3). Uptake experiments were carried out at 37 ± 1°C in 50 μL of the respective buffer containing the probe substrate and the compound or solvent. […] After the experiment, cells were washed twice with 100 μL of cold appropriate buffer and lysed with 50 μL of 0.1 M NaOH. Radiolabeled probe substrate transport was determined by measuring an aliquot (35 μL) from each well for liquid scintillation counting.

[2] = biological target: MRP3 (Homo sapiens, UniProt O15438); assay: Vesicular transport inhibition assay, MRP3; details: for Accumulation (counts per minute; CPM) with AMP / Accumulation (counts per minute; CPM) with ATP: MRP3;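 further: membrane vesicles with radiolabelled probe substrate and 2 mM glutathione, 4 mM ATP versus AMP background control, vesicle-trapped substrate quantified by liquid scintillation counting after filtration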;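 on Accumulation (counts per minute; CPM) with AMP: ATP 4 mM vs AMP background separates transporter uptake from diffusion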;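 on Accumulation (counts per minute; CPM) with ATP: ATP 4 mM vs AMP background separates transporter uptake from diffusion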
Procedure: In the vesicular transport inhibition assay (for BSEP, MRP) compounds were incubated with membrane vesicle preparations and the probe substrate. Incubations were carried out in the presence of 4 mM ATP or AMP to distinguish between transporter-mediated uptake and passive diffusion into the vesicles. For MRP2 and MRP3, reactions were carried out in the presence of 2 mM glutathione. Compounds were added to the reaction mixture in 0.75 μL of solvent (1% of the final incubation volume). […] Reactions were initiated by the addition of 25 μL of 12 mM MgATP (or 12 mM AMP in assay buffer as a background control) and preincubated separately. Reactions were quenched by the addition of 200 μL of ice-cold washing buffer and immediate filtration via glass fiber filters mounted on a 96-well plate (filter plate). The filters were washed (5 × 200 μL of ice-cold washing buffer), dried, and the amount of substrate inside the filtered vesicles was determined by liquid scintillation counting.

[3] = cited from earlier work; for AUC24h (Mean) / Cmax (Mean): rat; for exposure in plasma (AUC): rats
[4] = system: HepG2; assay: Viability assay, HepG2 cells, MTT test, 48 h; format: cell-based, human
Procedure: To study the viability of the liver cells, 5 × 10^3 HepG2 (ATCC®) or human primary cells (ThermoFisher Scientific, USA) were seeded in 100 μL of DMEM media (Gibco; Thermo Fisher Scientific, USA) supplemented with fetal bovine serum (FBS)- in a 96-well plate. […] The experiments were performed in triplicates.

[5] = 14-day toxicology study in rats

Sequence of OATP1A2 (P46721 whole entry): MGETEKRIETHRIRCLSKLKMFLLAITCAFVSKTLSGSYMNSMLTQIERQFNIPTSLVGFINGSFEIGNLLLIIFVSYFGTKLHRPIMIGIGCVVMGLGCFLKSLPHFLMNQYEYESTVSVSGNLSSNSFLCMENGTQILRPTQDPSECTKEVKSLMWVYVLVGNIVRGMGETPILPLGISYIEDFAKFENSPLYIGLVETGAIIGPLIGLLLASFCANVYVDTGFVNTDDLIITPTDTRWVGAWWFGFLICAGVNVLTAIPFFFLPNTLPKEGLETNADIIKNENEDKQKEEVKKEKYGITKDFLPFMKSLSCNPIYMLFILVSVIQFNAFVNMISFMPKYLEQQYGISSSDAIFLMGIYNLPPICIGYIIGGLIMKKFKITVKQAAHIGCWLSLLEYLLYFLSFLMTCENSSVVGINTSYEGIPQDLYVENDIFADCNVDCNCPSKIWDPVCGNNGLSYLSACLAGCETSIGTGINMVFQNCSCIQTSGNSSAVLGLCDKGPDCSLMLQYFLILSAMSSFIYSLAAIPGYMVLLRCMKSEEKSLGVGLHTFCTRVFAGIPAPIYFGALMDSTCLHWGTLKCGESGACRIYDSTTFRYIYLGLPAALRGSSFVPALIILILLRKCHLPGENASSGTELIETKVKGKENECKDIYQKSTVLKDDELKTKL
Sequence of MRP3 (O15438 whole entry, the tested form may be a part): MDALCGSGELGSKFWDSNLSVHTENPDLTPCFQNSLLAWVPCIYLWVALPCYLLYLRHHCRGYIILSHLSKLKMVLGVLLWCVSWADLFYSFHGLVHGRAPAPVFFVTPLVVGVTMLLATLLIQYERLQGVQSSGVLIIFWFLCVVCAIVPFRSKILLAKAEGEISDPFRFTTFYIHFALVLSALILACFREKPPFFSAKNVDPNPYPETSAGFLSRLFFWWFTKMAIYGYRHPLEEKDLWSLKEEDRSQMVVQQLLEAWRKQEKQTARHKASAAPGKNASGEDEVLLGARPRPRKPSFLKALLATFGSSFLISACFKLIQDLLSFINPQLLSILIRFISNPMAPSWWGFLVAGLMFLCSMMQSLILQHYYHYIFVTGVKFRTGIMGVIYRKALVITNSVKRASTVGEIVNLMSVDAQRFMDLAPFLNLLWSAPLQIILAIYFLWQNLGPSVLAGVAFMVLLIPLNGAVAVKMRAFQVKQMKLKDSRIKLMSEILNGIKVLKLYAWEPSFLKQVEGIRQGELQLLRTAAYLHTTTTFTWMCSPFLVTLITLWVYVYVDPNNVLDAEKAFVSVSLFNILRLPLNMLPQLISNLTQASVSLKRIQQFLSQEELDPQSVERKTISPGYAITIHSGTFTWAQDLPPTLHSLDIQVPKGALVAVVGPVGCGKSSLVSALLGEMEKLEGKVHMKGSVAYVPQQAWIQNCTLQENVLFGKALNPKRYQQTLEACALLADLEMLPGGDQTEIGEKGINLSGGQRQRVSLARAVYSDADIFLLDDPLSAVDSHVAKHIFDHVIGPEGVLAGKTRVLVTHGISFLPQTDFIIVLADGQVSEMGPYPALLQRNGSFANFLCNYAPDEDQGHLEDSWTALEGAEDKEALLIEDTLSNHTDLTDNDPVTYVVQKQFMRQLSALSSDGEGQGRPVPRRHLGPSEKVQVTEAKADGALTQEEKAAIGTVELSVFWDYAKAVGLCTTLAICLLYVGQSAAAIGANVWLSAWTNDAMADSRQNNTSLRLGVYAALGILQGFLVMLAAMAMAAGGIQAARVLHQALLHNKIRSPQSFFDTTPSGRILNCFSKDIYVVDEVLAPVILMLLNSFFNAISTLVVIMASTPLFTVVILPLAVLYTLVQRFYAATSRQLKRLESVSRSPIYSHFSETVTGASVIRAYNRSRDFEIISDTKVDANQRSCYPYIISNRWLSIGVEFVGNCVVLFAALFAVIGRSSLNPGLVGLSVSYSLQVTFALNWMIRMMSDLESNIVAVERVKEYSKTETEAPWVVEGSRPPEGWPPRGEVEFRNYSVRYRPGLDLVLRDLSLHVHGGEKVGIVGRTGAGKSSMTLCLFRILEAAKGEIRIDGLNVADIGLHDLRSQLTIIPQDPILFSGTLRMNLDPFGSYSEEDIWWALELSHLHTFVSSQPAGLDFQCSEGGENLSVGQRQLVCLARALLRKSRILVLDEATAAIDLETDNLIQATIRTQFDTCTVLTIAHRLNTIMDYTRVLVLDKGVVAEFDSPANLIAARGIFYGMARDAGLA

Cc1cc(OCCCS(C)(=O)=O)cc(C)c1-c1cccc(COc2ccc3c(c2)OC[C@H]3CC(=O)O)c1 [TAK-875, fasiglifam, reference compound]
IC50 [1]: 10.6 µM
Accumulation (counts per minute; CPM) HEK293FT-MOCK ([1]; conc 0.10 µM): 142 CPM and 152 CPM
Accumulation (counts per minute; CPM) HEK293FT-OATP1A2 ([1]; conc 0.10 µM): 10423 CPM and 10027 CPM
Accumulation (counts per minute; CPM) HEK293FT-MOCK ([1]; conc 0.30 µM): 182 CPM and 209 CPM
Accumulation (counts per minute; CPM) HEK293FT-OATP1A2 ([1]; conc 0.30 µM): 8846 CPM and 9642 CPM
Accumulation (counts per minute; CPM) HEK293FT-MOCK ([1]; conc 1.00 µM): 191 CPM and 201 CPM
Accumulation (counts per minute; CPM) HEK293FT-OATP1A2 ([1]; conc 1.00 µM): 7776 CPM and 7509 CPM
Accumulation (counts per minute; CPM) HEK293FT-MOCK ([1]; conc 3.00 µM): 170 CPM and 194 CPM
Accumulation (counts per minute; CPM) HEK293FT-OATP1A2 ([1]; conc 3.00 µM): 6621 CPM and 5348 CPM
Accumulation (counts per minute; CPM) HEK293FT-MOCK ([1]; conc 10.00 µM): 165 CPM and 156 CPM
Accumulation (counts per minute; CPM) HEK293FT-OATP1A2 ([1]; conc 10.00 µM): 5408 CPM and 5698 CPM
Accumulation (counts per minute; CPM) HEK293FT-MOCK ([1]; conc 30.00 µM): 149 CPM and 181 CPM
Accumulation (counts per minute; CPM) HEK293FT-OATP1A2 ([1]; conc 30.00 µM): 4731 CPM and 4729 CPM
Accumulation (counts per minute; CPM) HEK293FT-MOCK ([1]; conc 100.00 µM): 205 CPM and 204 CPM
Accumulation (counts per minute; CPM) HEK293FT-OATP1A2 ([1]; conc 100.00 µM): 2008 CPM and 2199 CPM
IC50 [2]: 31.8 µM
Accumulation (counts per minute; CPM) with AMP ([2]; conc 0.07 µM): 151 CPM and 146 CPM
Accumulation (counts per minute; CPM) with ATP ([2]; conc 0.07 µM): 3266 CPM and 3317 CPM
Accumulation (counts per minute; CPM) with AMP ([2]; conc 0.21 µM): 149 CPM and 132 CPM
Accumulation (counts per minute; CPM) with ATP ([2]; conc 0.21 µM): 3233 CPM and 3776 CPM
Accumulation (counts per minute; CPM) with AMP ([2]; conc 0.62 µM): 197 CPM and 169 CPM
Accumulation (counts per minute; CPM) with ATP ([2]; conc 0.62 µM): 3398 CPM and 3538 CPM
Accumulation (counts per minute; CPM) with AMP ([2]; conc 16.67 µM): 238 CPM and 245 CPM
Accumulation (counts per minute; CPM) with ATP ([2]; conc 16.67 µM): 2701 CPM and 2568 CPM
Accumulation (counts per minute; CPM) with AMP ([2]; conc 50.00 µM): 232 CPM and 210 CPM
Accumulation (counts per minute; CPM) with ATP ([2]; conc 50.00 µM): 1204 CPM and 1302 CPM
effect on ALT [3, 5]: significantly increased ALT at doses of 200 and 600 mg/kg after seven days
effect on TBA and T-BIL [3, 5]: increased TBA and T-BIL levels at a dose of 600 mg/kg
AUC24h (Mean) ([3]; Day 1, Dose 200 mg/kg/day): 1210000* ng x hr/mL
Cmax (Mean) ([3]; Day 1, Dose 200 mg/kg/day): 296000* ng/ml
AUC24h (Mean) ([3]; Day 1, Dose 600 mg/kg/day): 2010000* ng x hr/mL
Cmax (Mean) ([3]; Day 1, Dose 600 mg/kg/day): 465000* ng/ml
AUC24h (Mean) ([3]; Day 14, Dose 200 mg/kg/day): 3740000* ng x hr/mL
Cmax (Mean) ([3]; Day 14, Dose 200 mg/kg/day): 271000* ng/ml
AUC24h (Mean) ([3]; Day 14, Dose 600 mg/kg/day): 6610000* ng x hr/mL
Cmax (Mean) ([3]; Day 14, Dose 600 mg/kg/day): 383000* ng/ml
exposure in plasma (AUC) ([3]; 200 mg/kg, day 1): 1210 µg·h/mL
exposure in plasma (AUC) ([3]; 200 mg/kg, day 14): 3740 µg·h/mL
exposure in plasma (AUC) ([3]; 600 mg/kg, day 1): 2010 µg·h/mL
exposure in plasma (AUC) ([3]; 600 mg/kg, day 14): 6610 µg·h/mL
Accumulation in rat plasma after repeat dose ([3]; summary table): Yes
Propensity to elevate bile acids and bilirubin in plasma ([3]; summary table): Yes
effect on growth ([4]; HepG2, 48 h, 100 μM): abolished the growth
viability ([4]; HepG2, 48 h, concentrations up to 10 μM): Neither compound exhibited altered viability
IC50 ([4]; hepatocytes (HepG2 and human primary cells), 48 h, read-out: IC50 in the viability study): ~50 µM
viability, normalized to DMSO-treated controls ([4]; sheet Fig1 panel B (HepG2), 48 h, 0.78 uM, replicates, in % (unit assumed)): 126.396
